Data: patent US6914045B2, “Glycopeptide antibiotics” (Wyeth Holdings Corporation, priority 2001, dated 2005)
Converted amounts (≈) assume the structure as drawn.

Key:
Test in all cases: in vitro antibacterial evaluation, MIC by broth dilution
Assay type in all cases: cell-based
Streptococcus sp. = details: broth dilution, 18 hours at 35° C.
Method in brief: (§1)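 MIC, the lowest antibiotic concentration preventing growth, was read across 64-0.06 μg/mL with 5×10^5 CFU/mL inoculum. Method followed NCCLS M7-A2 broth dilution using Mueller-Hinton II; Gram-positive strains covered recent methicillin-, penicillin- and/or vancomycin-resistant clinical isolates.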

Staphylococcus sp. = details: broth dilution, 18 hours at 35° C.; for MIC Staphylococcus aureus (ATCC 29213): strain ATCC 29213; for MIC Staphylococcus aureus (GC 1131): strain GC 1131; for MIC Staphylococcus aureus (GC 3051): strain GC 3051; for MIC Staphylococcus aureus (GC 3053): strain GC 3053; for MIC Staphylococcus aureus (GC 4541): strain GC 4541; for MIC Staphylococcus aureus (GC 4542): strain GC 4542; for MIC Staphylococcus aureus-SMITH (GC 4543): strain GC 4543; for MIC Staphylococcus aureus (GC 4544): strain GC 4544; for MIC Staphylococcus aureus (GC 4545): strain GC 4545; for MIC Staphylococcus haemolyticus (GC 4546): strain GC 4546; for MIC Coagulase Negative Staphylococcus (GC 4547): strain GC 4547; for MIC Coagulase Negative Staphylococcus (GC 4548): strain GC 4548; for MIC Coagulase Negative Staphylococcus (GC 4549): strain GC 4549; for MIC Coagulase Negative Staphylococcus (GC 4551): strain GC 4551
Method in brief: as §1

Enterococcus sp. = details: broth dilution, 18 hours at 35° C.
Method in brief: as §1

Escherichia coli = details: 18 hours at 35° C.
Method in brief: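 MIC is the lowest antibiotic concentration (tested 64-0.06 μg/mL) preventing growth of a 5×10^5 CFU/mL inoculum. Determined by broth dilution in Mueller-Hinton II medium following NCCLS standard M7-A2.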

In the case of `CC(c1ccccc1)C1NC(=O)CNC(=O)C(CO)NC(=O)C(C(O)C2CNC(=N)N2C2OC(CO)C(O)C(O)C2O)NC(=O)C(C(O)C2CNC(=N)N2)NC(=O)C(Cc2ccc3oc(SCc4ccc5ccccc5c4)nc3c2)NC1=O` (centres unmarked) [Example 46], the “MIC Streptococcus pneumoniae (ATCC 6301)” value (Streptococcus sp.; strain ATCC 6301) was 8 µg/mL (≈ 6.85 µM), the “MIC Streptococcus pneumoniae (GC 1894)” value (Streptococcus sp.; strain GC 1894) was 8 µg/mL (≈ 6.85 µM) and the “MIC Streptococcus pyogenes (GC 4563)” value (Streptococcus sp.; strain GC 4563) was 1 µg/mL (≈ 0.856 µM). For the same compound, the “MIC Streptococcus agalactiae (GC 4564)” value (Streptococcus sp.; strain GC 4564) was 8 µg/mL (≈ 6.85 µM), the “MIC Streptococcus pneumoniae (GC 4565)” value (Streptococcus sp.; strain GC 4565) was 8 µg/mL (≈ 6.85 µM) and the “MIC Staphylococcus aureus (ATCC 29213)” value (Staphylococcus sp.) was 8 µg/mL (≈ 6.85 µM). The “MIC Staphylococcus aureus (GC 1131)” value (Staphylococcus sp.) was 8 µg/mL (≈ 6.85 µM), the “MIC Staphylococcus aureus (GC 3051)” value (Staphylococcus sp.) was 8 µg/mL (≈ 6.85 µM) and the “MIC Staphylococcus aureus (GC 3053)” value (Staphylococcus sp.) was 8 µg/mL (≈ 6.85 µM). For the same compound, the “MIC Staphylococcus aureus (GC 4541)” value (Staphylococcus sp.) was 8 µg/mL (≈ 6.85 µM), the “MIC Staphylococcus aureus (GC 4542)” value (Staphylococcus sp.) was 8 µg/mL (≈ 6.85 µM) and the “MIC Staphylococcus aureus-SMITH (GC 4543)” value (Staphylococcus sp.) was 4 µg/mL (≈ 3.42 µM). The “MIC Staphylococcus aureus (GC 4544)” value (Staphylococcus sp.) was 8 µg/mL (≈ 6.85 µM), the “MIC Staphylococcus aureus (GC 4545)” value (Staphylococcus sp.) was 8 µg/mL (≈ 6.85 µM) and the “MIC Staphylococcus haemolyticus (GC 4546)” value (Staphylococcus sp.) was 8 µg/mL (≈ 6.85 µM). The “MIC Coagulase Negative Staphylococcus (GC 4547)” value (Staphylococcus sp.) was 4 µg/mL (≈ 3.42 µM), the “MIC Coagulase Negative Staphylococcus (GC 4548)” value (Staphylococcus sp.) was 8 µg/mL (≈ 6.85 µM) and the “MIC Coagulase Negative Staphylococcus (GC 4549)” value (Staphylococcus sp.) was 2 µg/mL (≈ 1.71 µM). For the same compound, the “MIC Coagulase Negative Staphylococcus (GC 4551)” value (Staphylococcus sp.) was 4 µg/mL (≈ 3.42 µM), the “MIC Enterococcus faecalis (ATCC 29212)” value (Enterococcus sp.; strain ATCC 29212) was 8 µg/mL (≈ 6.85 µM) and the “MIC Enterococcus faecalis (GC 2242)” value (Enterococcus sp.; strain GC 2242) was 8 µg/mL (≈ 6.85 µM). For the same compound, the “MIC Enterococcus faecium (GC 2243)” value (Enterococcus sp.; strain GC 2243) was 4 µg/mL (≈ 3.42 µM), the “MIC Enterococcus faecalis (GC 2691)” value (Enterococcus sp.; strain GC 2691) was 16 µg/mL (≈ 13.7 µM) and the “MIC Enterococcus faecalis (GC 3059)” value (Enterococcus sp.; strain GC 3059) was 32 µg/mL (≈ 27.4 µM). For the same compound, the “MIC Enterococcus faecalis (GC 4552)” value (Enterococcus sp.; strain GC 4552) was 8 µg/mL (≈ 6.85 µM), the “MIC Enterococcus faecalis (GC 4553)” value (Enterococcus sp.; strain GC 4553) was 4 µg/mL (≈ 3.42 µM) and the “MIC Enterococcus faecalis (GC 4554)” value (Enterococcus sp.; strain GC 4554) was 16 µg/mL (≈ 13.7 µM). The “MIC Enterococcus faecium (GC 4556)” value (Enterococcus sp.; strain GC 4556) was 16 µg/mL (≈ 13.7 µM), the “MIC Enterococcus faecium (GC 4557)” value (Enterococcus sp.; strain GC 4557) was 8 µg/mL (≈ 6.85 µM) and the “MIC Enterococcus avium (GC 4558)” value (Enterococcus sp.; strain GC 4558) was 4 µg/mL (≈ 3.42 µM). The “MIC Enterococcus faecalis (GC 6189)” value (Enterococcus sp.; strain GC 6189) was 16 µg/mL (≈ 13.7 µM), the “MIC Escherichia coli (ATCC 25922)” value (Escherichia coli; strain ATCC 25922, broth dilution) was 64 µg/mL (≈ 54.8 µM) and the “MIC Escherichia coli (GC 4559)” value (Escherichia coli; strain GC 4559, broth dilution) was 64 µg/mL (≈ 54.8 µM). For the same compound, the “MIC Escherichia coli (GC 4560)” value (Escherichia coli; strain GC 4560, broth dilution) was 16 µg/mL (≈ 13.7 µM).
With `CC(C)CC(=O)OC1C(O)C(OC2C(CO)OC(Oc3ccc(CC4NC(=O)C(C(C)c5ccccc5)NC(=O)CNC(=O)C(CO)NC(=O)C(C(O)C5CNC(=N)N5C5OC(CO)C(O)C(O)C5O)NC(=O)C(C(O)C5CNC(=N)N5)NC4=O)cc3)C(O)C2O)OC2COC3(OC21)C1CC2CC(C1)CC3C2` (centres unmarked) [Example 218] the “MIC Streptococcus agalactiae (GC 4564)” value (Streptococcus sp.) was 0.25 µg/mL (≈ 0.165 µM), the “MIC Streptococcus pneumoniae (ATCC 6301)” value (Streptococcus sp.) was 0.12 µg/mL (≈ 0.0794 µM) and the “MIC Streptococcus pneumoniae (GC 1894)” value (Streptococcus sp.) was less than 0.06 µg/mL. For the same compound, the “MIC Streptococcus pneumoniae (GC 4565)” value (Streptococcus sp.) was 0.12 µg/mL (≈ 0.0794 µM), the “MIC Streptococcus pyogenes (GC 4563)” value (Streptococcus sp.) was 0.5 µg/mL (≈ 0.331 µM) and the “MIC Streptococcus pneumoniae (ATCC 6301)” value (Streptococcus sp.; inoculum 5×10^5 CFU/mL, strain ATCC 6301) was 0.12 µg/mL (≈ 0.0794 µM). The “MIC Streptococcus pneumoniae (GC 1894)” value (Streptococcus sp.; inoculum 5×10^5 CFU/mL, strain GC 1894) was less than 0.06 µg/mL, the “MIC Streptococcus pyogenes (GC 4563)” value (Streptococcus sp.; inoculum 5×10^5 CFU/mL, strain GC 4563) was 0.5 µg/mL (≈ 0.331 µM) and the “MIC Streptococcus agalactiae (GC 4564)” value (Streptococcus sp.; inoculum 5×10^5 CFU/mL, strain GC 4564) was 0.25 µg/mL (≈ 0.165 µM). For the same compound, the “MIC Streptococcus pneumoniae (GC 4565)” value (Streptococcus sp.; inoculum 5×10^5 CFU/mL, strain GC 4565) was 0.12 µg/mL (≈ 0.0794 µM), the “MIC Staphylococcus aureus (ATCC 29213)” value (Staphylococcus sp.) was 4 µg/mL (≈ 2.65 µM) and the “MIC Staphylococcus aureus (GC 1131)” value (Staphylococcus sp.) was 4 µg/mL (≈ 2.65 µM). The “MIC Staphylococcus aureus (GC 3051)” value (Staphylococcus sp.) was 4 µg/mL (≈ 2.65 µM), the “MIC Staphylococcus aureus (GC 3053)” value (Staphylococcus sp.) was 4 µg/mL (≈ 2.65 µM) and the “MIC Staphylococcus aureus (GC 4541)” value (Staphylococcus sp.) was 4 µg/mL (≈ 2.65 µM). For the same compound, the “MIC Staphylococcus aureus (GC 4542)” value (Staphylococcus sp.) was 4 µg/mL (≈ 2.65 µM), the “MIC Staphylococcus aureus-SMITH (GC 4543)” value (Staphylococcus sp.) was 4 µg/mL (≈ 2.65 µM) and the “MIC Staphylococcus aureus (GC 4544)” value (Staphylococcus sp.) was 4 µg/mL (≈ 2.65 µM). The “MIC Staphylococcus aureus (GC 4545)” value (Staphylococcus sp.) was 4 µg/mL (≈ 2.65 µM), the “MIC Staphylococcus haemolyticus (GC 4546)” value (Staphylococcus sp.) was 4 µg/mL (≈ 2.65 µM) and the “MIC Coagulase Negative Staphylococcus (GC 4547)” value (Staphylococcus sp.) was 4 µg/mL (≈ 2.65 µM). The “MIC Coagulase Negative Staphylococcus (GC 4548)” value (Staphylococcus sp.) was 4 µg/mL (≈ 2.65 µM), the “MIC Coagulase Negative Staphylococcus (GC 4549)” value (Staphylococcus sp.) was 4 µg/mL (≈ 2.65 µM) and the “MIC Coagulase Negative Staphylococcus (GC 4551)” value (Staphylococcus sp.) was 8 µg/mL (≈ 5.29 µM). The “MIC Coagulase Negative Staphylococcus (GC 6257)” value (Staphylococcus sp.; strain GC 6257) was 4 µg/mL (≈ 2.65 µM), the “MIC Enterococcus avium (GC 4558)” value (Enterococcus sp.) was 4 µg/mL (≈ 2.65 µM) and the “MIC Enterococcus faecalis (ATCC 29212)” value (Enterococcus sp.) was 4 µg/mL (≈ 2.65 µM). For the same compound, the “MIC Enterococcus faecalis (GC 2242)” value (Enterococcus sp.) was 4 µg/mL (≈ 2.65 µM), the “MIC Enterococcus faecalis (GC 2691)” value (Enterococcus sp.) was 4 µg/mL (≈ 2.65 µM) and the “MIC Enterococcus faecalis (GC 3059)” value (Enterococcus sp.) was 4 µg/mL (≈ 2.65 µM). The “MIC Enterococcus faecalis (GC 4552)” value (Enterococcus sp.) was 4 µg/mL (≈ 2.65 µM), the “MIC Enterococcus faecalis (GC 4553)” value (Enterococcus sp.) was 4 µg/mL (≈ 2.65 µM) and the “MIC Enterococcus faecalis (GC 4554)” value (Enterococcus sp.) was 4 µg/mL (≈ 2.65 µM). The “MIC Enterococcus faecalis (GC 6189)” value (Enterococcus sp.) was 4 µg/mL (≈ 2.65 µM), the “MIC Enterococcus faecium (GC 2243)” value (Enterococcus sp.) was 4 µg/mL (≈ 2.65 µM) and the “MIC Enterococcus faecium (GC 4556)” value (Enterococcus sp.) was 4 µg/mL (≈ 2.65 µM). The “MIC Enterococcus faecium (GC 4557)” value (Enterococcus sp.) was 4 µg/mL (≈ 2.65 µM), the “MIC Enterococcus faecalis (ATCC 29212)” value (Enterococcus sp.; inoculum 5×10^5 CFU/mL, strain ATCC 29212) was 4 µg/mL (≈ 2.65 µM) and the “MIC Enterococcus faecalis (GC 2242)” value (Enterococcus sp.; inoculum 5×10^5 CFU/mL, strain GC 2242) was 4 µg/mL (≈ 2.65 µM). The “MIC Enterococcus faecium (GC 2243)” value (Enterococcus sp.; inoculum 5×10^5 CFU/mL, strain GC 2243) was 4 µg/mL (≈ 2.65 µM), the “MIC Enterococcus faecalis (GC 2691)” value (Enterococcus sp.; inoculum 5×10^5 CFU/mL, strain GC 2691) was 4 µg/mL (≈ 2.65 µM) and the “MIC Enterococcus faecalis (GC 3059)” value (Enterococcus sp.; inoculum 5×10^5 CFU/mL, strain GC 3059) was 4 µg/mL (≈ 2.65 µM). The “MIC Enterococcus faecalis (GC 4552)” value (Enterococcus sp.; inoculum 5×10^5 CFU/mL, strain GC 4552) was 4 µg/mL (≈ 2.65 µM), the “MIC Enterococcus faecalis (GC 4553)” value (Enterococcus sp.; inoculum 5×10^5 CFU/mL, strain GC 4553) was 4 µg/mL (≈ 2.65 µM) and the “MIC Enterococcus faecalis (GC 4554)” value (Enterococcus sp.; inoculum 5×10^5 CFU/mL, strain GC 4554) was 4 µg/mL (≈ 2.65 µM). For the same compound, the “MIC Enterococcus faecium (GC 4556)” value (Enterococcus sp.; inoculum 5×10^5 CFU/mL, strain GC 4556) was 4 µg/mL (≈ 2.65 µM), the “MIC Enterococcus faecium (GC 4557)” value (Enterococcus sp.; inoculum 5×10^5 CFU/mL, strain GC 4557) was 4 µg/mL (≈ 2.65 µM) and the “MIC Enterococcus avium (GC 4558)” value (Enterococcus sp.; inoculum 5×10^5 CFU/mL, strain GC 4558) was 4 µg/mL (≈ 2.65 µM). For the same compound, the “MIC Enterococcus faecalis (GC 6189)” value (Enterococcus sp.; inoculum 5×10^5 CFU/mL, strain GC 6189) was 4 µg/mL (≈ 2.65 µM), the “MIC Escherichia coli (ATCC 25922)” value (Escherichia coli) was 64 µg/mL (≈ 42.3 µM) and the “MIC Escherichia coli (GC 4559)” value (Escherichia coli) was greater than 64 µg/mL. For the same compound, the “MIC Escherichia coli (GC 4560)” value (Escherichia coli) was 8 µg/mL (≈ 5.29 µM).
